Drawing on BindingDB's records for doi:10.7270/Q2TX3CTT (Broad Institute, 2010), this text covers EC50 for 63 compounds.

In the assay the target is Glycogen synthase kinase-3 beta (Homo sapiens, UniProt P49841). In words: GSK3beta kinase inhibitor potency, dose response, biochemical, luminescence, cell-free homogeneous, retest (AID 434954).
Sequence of Glycogen synthase kinase-3 beta (P49841 whole entry): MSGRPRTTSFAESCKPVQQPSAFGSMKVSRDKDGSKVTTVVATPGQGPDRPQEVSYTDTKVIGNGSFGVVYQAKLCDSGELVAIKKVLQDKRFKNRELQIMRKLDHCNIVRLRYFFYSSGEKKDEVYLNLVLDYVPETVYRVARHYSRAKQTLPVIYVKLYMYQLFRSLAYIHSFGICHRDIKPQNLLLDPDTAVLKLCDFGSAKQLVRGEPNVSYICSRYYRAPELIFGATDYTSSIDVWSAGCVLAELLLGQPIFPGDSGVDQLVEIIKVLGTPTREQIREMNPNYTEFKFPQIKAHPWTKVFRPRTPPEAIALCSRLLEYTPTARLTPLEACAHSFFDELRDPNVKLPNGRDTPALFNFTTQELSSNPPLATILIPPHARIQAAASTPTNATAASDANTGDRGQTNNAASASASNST
For the compound `Fc1ccc(CSc2ccc3nnc(-c4cccs4)n3n2)cc1` [SMR000236997], the EC50 was over 300 µM.

As to `c1ccc(CSc2nnc(-c3ccncc3)o2)cc1`, the response was half-maximal at 5.14 µM (EC50).

`CCN(CC)Cc1c(O)ccc2c(=O)c(-c3ccc4c(c3)OCCO4)coc12` [MLS000552107] returned an EC50 of over 300 µM.

Regarding `CCOC(=O)c1nnn(-c2nonc2N)c1COc1ccccc1` [ethyl 1-(4-amino-1,2,5-oxadiazol-3-yl)-5-(phenoxymethyl)triazole-4-carboxylate], the EC50 is 23.8 µM.

`COc1cccc(-c2nnc3sc(C4CCCCC4)nn23)c1` [6-cyclohexyl-3-(3-methoxyphenyl)-[1,2,4]triazolo[3,4-b][1,3,4]thiadiazole] registered a 50% effective concentration (EC50) of 16.3 µM.

On to `C=CCNc1nc(N)c([N+](=O)[O-])c(NCCO)n1` [2-(2-Allylamino-6-amino-5-nitro-pyrimidin-4-ylamino)-ethanol], for which the response was half-maximal at 46.5 µM (EC50).

In turn, `Nc1nc(NCC2CCCO2)nc(Nc2cccc(F)c2)c1[N+](=O)[O-]` (stereo not drawn) [N4-(3-fluorophenyl)-5-nitro-N2-(2-oxolanylmethyl)pyrimidine-2,4,6-triamine] showed an EC50 of 7.14 µM.

For `Oc1cc(-c2c[nH]c3ccccc23)c(O)n1-c1ccccc1` [MLS000121758], the EC50 was over 300 µM.

`COc1ccccc1-n1c(S)nnc1-c1ccco1` [MLS001214684] came in with an EC50 of over 300 µM.

Take `O=Cc1cn(CCC(=O)O)nc1-c1cccc(Cl)c1`: the EC50 was over 300 µM.

`CCOC(=O)CC(=O)CSc1ccc2nnc(-c3ccccc3)n2n1` [ethyl 3-oxo-4-[(3-phenyl[1,2,4]triazolo[4,3-b]pyridazin-6-yl)thio]butanoate] returned an EC50 of over 300 µM.

Compound `Cn1c(=O)[nH]c(=O)c2c1nc1n2CCCS1` returned an EC50 of over 300 µM.

In turn, `CCOC(=O)CSc1ccc2nnc(CCNS(=O)(=O)c3ccccc3)n2n1` [ethyl [(3-{2-[(phenylsulfonyl)amino]ethyl}[1,2,4]triazolo[4,3-b]pyridazin-6-yl)thio]acetate] yielded an EC50 of over 300 µM.

`COC(=O)c1sccc1NC(=O)c1cccc(OC)c1` [methyl 3-[(3-methoxyphenyl)carbonylamino]thiophene-2-carboxylate] had an EC50 of over 300 µM.

Turning to `CC1CCN(C(=O)CSc2nc(N)c3c4c(sc3n2)CN(C)CC4)CC1` [2-[(4-azanyl-7-methyl-6,8-dihydro-5H-pyrido[4,5]thieno[1,2-c]pyrimidin-2-yl)sulfanyl]-1-(4-methylpiperidin-1-yl)ethanone], the EC50 is over 300 µM.

For the compound `Cc1ccc(Cc2cnc(NC(=O)C3CCCO3)s2)cc1` (stereo not drawn) [SMR000141246], the EC50 was found to be 17.4 µM.

The compound `c1ccc(CNc2ncnc3scc(-c4cccs4)c23)nc1` [N-(pyridin-2-ylmethyl)-5-thiophen-2-yl-thieno[2,3-d]pyrimidin-4-amine] displayed an EC50 of over 300 µM.

The compound `Cc1ccc(-c2nnc3ccc(SC(C)C(=O)O)nn23)cc1` (stereo not drawn) [2-[[3-(4-methylphenyl)-[1,2,4]triazolo[4,3-b]pyridazin-6-yl]sulfanyl]propanoic acid] displayed an EC50 of 34.2 µM.

For the compound `O=c1oc2cc(O)ccc2c2c1CCCC2` [3-hydroxy-7,8,9,10-tetrahydro-6H-benzo[c]chromen-6-one], the EC50 is over 300 µM.

With `Cc1ccccc1CSc1nnc(-c2ccncc2)o1` [2-[(2-methylphenyl)methylsulfanyl]-5-pyridin-4-yl-1,3,4-oxadiazole], the response was half-maximal at 22.1 µM (EC50).

For the compound `COCc1c(C(=O)NN=Cc2ccncc2)nnn1-c1nonc1N` [MLS001194772], the EC50 turned out to be 40.1 µM.

`COc1ccc(C=C2SC(NCc3ccccc3)=NC2=O)cc1` [(5Z)-5-[(4-methoxyphenyl)methylidene]-2-[(phenylmethyl)amino]-1,3-thiazol-4-one]: the EC50 worked out at 7.01 µM.

`CCc1ccc(NC(=O)C(NS(=O)(=O)c2cccc3nsnc23)c2ccccc2)cc1` (stereo not drawn) [2-(2,1,3-benzothiadiazol-4-ylsulfonylamino)-N-(4-ethylphenyl)-2-phenyl-ethanamide] came in with an EC50 of over 300 µM.

`Nc1nc(Nc2ccccc2F)nc(NCCO)c1[N+](=O)[O-]` [2-[6-Amino-2-(2-fluoro-phenylamino)-5-nitro-pyrimidin-4-ylamino]-ethanol]: the EC50 is 15.6 µM.

As to `CCCC1=Nc2ncnn2C(c2ccco2)C1C(=O)OCC` (stereo not drawn) [ethyl 7-(furan-2-yl)-5-propyl-1,7-dihydro-[1,2,4]triazolo[1,5-a]pyrimidine-6-carboxylate], the midpoint of the response, the EC50, lay at 17.4 µM.

`O=C(NN=Cc1cc(Br)ccc1O)c1ccccc1Cl` [N'-[(E)-(3-bromo-6-oxocyclohexa-2,4-dien-1-ylidene)methyl]-2-chlorobenzohydrazide] displayed a concentration giving a half-maximal response (EC50) of over 300 µM.

As for `N#Cc1c(N)nc2c(c1-c1ccc(F)cc1)CCC2`, the EC50 is over 300 µM.

The compound `COc1ccc2nc3c(cc2c1)c(NC(=O)CC(C)C)nn3CC(C)C` [N-[6-methoxy-1-(2-methylpropyl)-3-pyrazolo[3,4-b]quinolinyl]-3-methylbutanamide] displayed an EC50 of over 300 µM.

`CC(C)CCNc1nc(N)c([N+](=O)[O-])c(NCC2CCCO2)n1` (stereo not drawn) [SMR000220274] showed an EC50 of 1.43 µM.

Compound `Nc1nonc1-n1nnc(C(=O)NN=Cc2ccccc2F)c1CN1CCc2ccccc21` [MLS001075096] had an EC50 of 22.5 µM.

With `O=C1Nc2cc(C(=O)N3CCC(N4CCCCC4)CC3)ccc2S/C1=C\c1ccccc1` [SMR000635251], the EC50 was determined as 16.9 µM.

With `CCN(CC)Cc1c(C(=O)NN=Cc2c(Cl)cccc2Cl)nnn1-c1nonc1N` [SMR000620609], the EC50 was over 300 µM.

Turning to `COc1cccc(C(CC(=O)NCc2ccco2)NS(=O)(=O)c2ccc(C)cc2)c1OC` (stereo not drawn) [3-(2,3-dimethoxyphenyl)-N-(2-furylmethyl)-3-{[(4-methylphenyl)sulfonyl]amino}propanamide], the EC50 was over 300 µM.

`CCOC(=O)c1cnc2ccc(Cl)cc2c1Nc1ccc(S(=O)(=O)Nc2ncccn2)cc1` [ethyl 6-chloro-4-[4-(pyrimidin-2-ylsulfamoyl)anilino]quinoline-3-carboxylate] came in with an EC50 of 108 µM.

`COc1cc(/C=N/NC(=O)c2ccc(Cl)cc2)ccc1Oc1ccc([N+](=O)[O-])cn1` gave a 50% effective concentration (EC50) of over 300 µM.

`CCNc1nc(N)nc(-c2cc(Cl)ccc2OC)n1` [MLS000538218] displayed an EC50 of over 300 µM.

The compound `Cc1ccc(C(=O)/[O+]=N/[CH-]c2ccc(N3CCCCC3)c([N+](=O)[O-])c2)cc1` [[(3-nitro-4-piperidin-1-ylphenyl)methylideneamino] 4-methylbenzoate] came in with a 50% effective concentration (EC50) of over 300 µM.

On to `COc1cccc(C2c3cc4c(cc3N=C3CC(C)(C)CC(=O)C32)OCO4)c1` (stereo not drawn) [MLS000522404], for which the EC50 is over 300 µM.

`O=C(NCCCN1CCCCC1)c1ccc2c(c1)NC(=O)C(N1CCCCC1)S2` (stereo not drawn) [3-oxo-2-piperidin-1-yl-N-(3-piperidin-1-ylpropyl)-4H-1,4-benzothiazine-6-carboxamide]: the EC50 is over 300 µM.

`CCn1c(S)nnc1-c1ccc([N+](=O)[O-])cc1` [SMR000176027] registered an EC50 of over 300 µM.

The compound `O=C(CCCC1=Nc2ccccc2S(=O)(=O)N1)Nc1ccccc1` [MLS001028511] displayed an EC50 of over 300 µM.

With `c1ccc(Nc2ccnc(Nc3ccccc3)n2)cc1` [N*2*,N*4*-Diphenyl-pyrimidine-2,4-diamine], it took 37.6 µM to reach a half-maximal effect (EC50).

Compound `CCCCn1nc(NC(=O)c2cccs2)c2cc3cc(OC)ccc3nc21` [SMR000046614] gave an EC50 of 9.23 µM.

In turn, `O=c1oc2cc(O)ccc2cc1-c1ccccc1` [7-Hydroxy-3-phenyl-chromen-2-one] displayed a half-maximal effective concentration (EC50) of over 300 µM.

For `CN=C(C)C(C(=O)OC)C(=O)c1ccc(Cl)cc1Cl` (stereo not drawn) [SMR000461254], the EC50 is over 300 µM.

`COCCNc1nc(N)c([N+](=O)[O-])c(NCC2CCCO2)n1` (stereo not drawn) [MLS000588049] gave an EC50 of 13 µM.

In the case of `COCc1c(C(=O)NN=Cc2ccccn2)nnn1-c1nonc1N`, the EC50 is over 300 µM.

As to `CCC(=NNC(=S)Nc1cccc(C)c1)c1ccccc1`, the 50% effective concentration (EC50) is over 300 µM.

With `CC(=O)Nc1c(-c2ccccc2)nc2ccc(Cl)cn12` [MLS001077169], the EC50 is over 300 µM.

`CCn1c(SCC(=O)Nc2ccccc2)nnc1C1CCCCC1` returned an EC50 of over 300 µM.

For `COc1ccc(C=C2SC(Nc3ccccc3)=NC2=O)cc1` [5-(4-Methoxy-benzylidene)-2-phenylimino-thiazolidin-4-one], the EC50 was over 300 µM.

Compound `NC(=NNC(=O)c1ccc(Cl)cc1)c1cnccn1` [N-[(Z)-[azanyl(pyrazin-2-yl)methylidene]amino]-4-chloranyl-benzamide] yielded an EC50 of over 300 µM.

On to `Cc1nc2nc(=O)c3c(n2[nH]1)NC1=C(C(=O)CC(C)(C)C1)C3c1ccccc1` (stereo not drawn) [MLS000084334], for which the EC50 is over 300 µM.

For the compound `COc1cc(-c2cc(=O)c3c(O)c(OC)c(OC)c(O)c3o2)ccc1O` [5,8-dihydroxy-2-(4-hydroxy-3-methoxy-phenyl)-6,7-dimethoxy-chromone], the EC50 came to 24.9 µM.

As for `Cc1ccc(OCCn2c(S)nc3c(N)ncnc32)cc1` [MLS000765129], the 50% effective concentration (EC50) was over 300 µM.

On to `O=C(NN=Cc1cccnc1)c1cc(-c2ccccc2)nc2c(Cl)cccc12` [MLS001230128], for which the EC50 is over 300 µM.

`C=CCN=C(NC#N)SC` [methyl N-cyano-N'-prop-2-enyl-carbamimidothioate] showed an EC50 of over 300 µM.

Regarding `Cc1nnc(SCC(=O)N2CCC(C(=O)Nc3nccs3)CC2)n1Cc1ccccc1`, the EC50 stood at 36.6 µM.

As to `CC1CCCCC1NC(=O)CN(C)S(=O)(=O)c1cccc2cccnc12` (stereo not drawn) [N-(2-methylcyclohexyl)-2-[methyl(quinolin-8-ylsulfonyl)amino]acetamide], the EC50 is over 300 µM.

`CC(C)N1C(=O)C(=CNCc2cccnc2)C(=O)NC1=S` [1-Isopropyl-5-[1-[(pyridin-3-ylmethyl)-amino]-meth-(E)-ylidene]-2-thioxo-dihydro-pyrimidine-4,6-dione] came in with an EC50 of over 300 µM.

The compound `N#Cc1ccccc1NC(=O)CSc1nnc(-c2ccncc2)o1` displayed an EC50 of over 300 µM.

The compound `CCCSCCCNC(=O)Cn1nc(CC)n2c(cc3c(OC)cccc32)c1=O` registered an EC50 of over 300 µM.

For `N=C(NO)c1ccc(Oc2ccccc2Cl)c([N+](=O)[O-])c1` [4-(2-chlorophenoxy)-N'-hydroxy-3-nitrobenzenecarboximidamide], the EC50 was over 300 µM.

A word on the EC50: it is the concentration that produces a half-maximal response. High values mean a less potent agent, low ones a more potent agent.
